These are literature values, as cited in patent publication US20070202158A1, “Methods Of Administering Water-Soluble Prodrugs Of Propofol For Extended Sedation” (MGI GP, Inc., priority 2003, published 2007).

The series deals with patients. The conditions noted are these: anesthetic induction doses; cited from earlier work.

For `CC(C)c1cccc(C(C)C)c1O` [propofol, 2,6-diisopropylphenol], the “patients with respiratory consequences, including reduction in tidal volume and apnea” value was “up to 83%”.
